The subject of one data set is Trypanosoma cruzi. The data set can be described thus: MMV: Inhibition of Trypanosoma cruzi (Tulahuen C4 LacZ) (Chagas in vitro). Type of data set: functional, organism-based.
Data set [1] has as its system Trypanosoma brucei rhodesiense. Nature of the data set: MMV: Inhibition of Trypanosoma brucei rhodesiense (STIB 900) (HAT in vitro). The format is functional, organism-based.
The test system of another data set is Plasmodium falciparum. The data set can be described thus: MMV: Inhibition of Plasmodium falciparum 3D7 at 5uM compound concentration. The format is functional.
Data set [2] can be described thus: MMV: Cytotoxicity against human fibroblasts (MRC-5) cells. To be noted: MRC-5 cells (human fibroblasts).
In a further data set the test system is Leishmania infantum. Nature of the data set: MMV: Inhibition of Leishmania infantum (MHOM/MA/BE/67) in vitro. The format is functional, organism-based.
The subject of data set [3] is Trypanosoma brucei brucei. The data set can be described thus: MMV: Inhibition of Trypanosoma brucei brucei (Squib 427) (HAT in vitro). Type of data set: functional, organism-based.

As usually defined, the IC50 is the concentration that gives 50% inhibition. Read a high IC50 as weaker potency in that assay. By inhibition is commonly meant the change of the read-out against control, counted positive when it falls. A higher inhibition goes with strong suppression.

For `COc1ccc(-c2cc3c(nn2)-c2ccccc2C3=O)cc1`, the IC50 (in the data set with Trypanosoma cruzi; in data set [1]; in data set [2]; with Leishmania infantum; in data set [3]) was greater than 32 µM each time. In the data set on Plasmodium falciparum, this molecule had an inhibition at 5 µM of 97%.

Regarding `O=C(Nc1ccccc1O)c1ccc(Oc2cccc(C(=O)Nc3ccccc3O)c2)cc1`, the IC50 (in the data set with Trypanosoma cruzi; in data set [1]; in data set [2]; in the data set with Leishmania infantum; in data set [3]) was greater than 32 µM each time. Moreover, the inhibition at 5 µM in the data set on Plasmodium falciparum came to 91%.

Regarding `FC(F)(F)c1ccc(Nc2nnnc3ccccc23)cc1`, the IC50 (in the data set with Trypanosoma cruzi; in data set [1]; in data set [2]; in the data set with Leishmania infantum; in data set [3]) was greater than 32 µM throughout. In the data set with Plasmodium falciparum, this molecule showed an inhibition at 5 µM of 77%.

On to `COCCNC(=O)c1ccc(OC2CCN(Cc3ccc(F)c(F)c3)CC2)c(Cl)c1`, for which the IC50 was greater than 32 µM in the data set with Trypanosoma cruzi; 16.1 µM in data set [1]; greater than 32 µM in data set [2]; greater than 32 µM in the data set on Leishmania infantum; greater than 32 µM in data set [3]. For the same molecule, the inhibition at 5 µM with Plasmodium falciparum came to 91%.

Take `O=C(NC1CCCC1)c1ccc(N2CCC(NCc3cccc(C(F)(F)F)c3)CC2)cc1`: the IC50 in the data set with Trypanosoma cruzi is 21.3 µM; in data set [1] it was 14.4 µM; in data set [2] it was greater than 32 µM; in the data set on Leishmania infantum, 16.6 µM; in data set [3] it was greater than 32 µM. For the same molecule, the inhibition at 5 µM in the data set on Plasmodium falciparum was 93%.

With `FC(F)(F)c1cccc(Nc2nc(-c3ccccc3)nc3ncccc23)c1`, the IC50 in the data set with Trypanosoma cruzi is 15.3 µM; in data set [1] it was 25.3 µM; in data set [2], greater than 32 µM; in the data set on Leishmania infantum, greater than 32 µM; in data set [3] it was greater than 32 µM. Moreover, the inhibition at 5 µM in the data set with Plasmodium falciparum was determined as 74%.

For the molecule `Cn1c(C(=O)c2cccc3ccccc23)nc2ccccc21`, the IC50 is greater than 32 µM with Trypanosoma cruzi; 29.2 µM in data set [1]; greater than 32 µM in data set [2]; 16 µM in the data set on Leishmania infantum; greater than 32 µM in data set [3]. In the data set on Plasmodium falciparum, this molecule displayed an inhibition at 5 µM of 89%.

For the molecule `N=c1c2ccccc2nnn1-c1cccc(C(F)(F)F)c1`, the IC50 (in the data set with Trypanosoma cruzi; in data set [1]; in data set [2]; in the data set on Leishmania infantum; in data set [3]) was greater than 32 µM throughout. Moreover, in the data set on Plasmodium falciparum, the inhibition at 5 µM is 83%.

With `Cc1ccc(OCCCCCCNCCO)c(C)c1`, the IC50 is 16 µM in the data set with Trypanosoma cruzi; 3.94 µM in data set [1]; greater than 32 µM in data set [2]; 16.1 µM in the data set on Leishmania infantum; 3.72 µM in data set [3]. The same molecule had an inhibition at 5 µM in the data set on Plasmodium falciparum of 49%.

For the molecule `Oc1ccc(Cl)cc1CNc1nc2ccccc2[nH]1`, the IC50 in the data set with Trypanosoma cruzi is 16.1 µM; in data set [1] it was 16 µM; in data set [2] it was 15.9 µM; in the data set on Leishmania infantum, 16 µM; in data set [3], 15.6 µM. In the data set on Plasmodium falciparum, 5 µM produced 95% inhibition.

With `O=C(c1ccccc1F)N(Cc1ccc(Cl)cc1)c1ccccn1`, the IC50 (with Trypanosoma cruzi; in data set [1]; in data set [2]; in the data set on Leishmania infantum; in data set [3]) was greater than 32 µM in each case. Also, in the data set with Plasmodium falciparum, the inhibition at 5 µM amounted to 59%.

For `COCCn1c(C)nc2ccccc2c1=O`, the IC50 (in the data set with Trypanosoma cruzi; in data set [1]; in data set [2]; with Leishmania infantum; in data set [3]) was greater than 32 µM each time. The molecule also came in with an inhibition at 5 µM in the data set on Plasmodium falciparum of 59%.

With `COc1ccc(C(=O)Nc2ccc(Cl)cc2C(=O)Nc2ccncc2)cc1`, the IC50 (in the data set on Trypanosoma cruzi; in data set [1]; in data set [2]; with Leishmania infantum; in data set [3]) was greater than 32 µM each time. In addition, in the data set with Plasmodium falciparum, the inhibition at 5 µM worked out at 93%.

Consider `O=C(Nc1ccc(Cl)cc1)N1CCN(c2ccc3nncn3n2)CC1`, for which the IC50 (in the data set on Trypanosoma cruzi; in data set [1]; in data set [2]; with Leishmania infantum; in data set [3]) was greater than 32 µM each time. In the data set on Plasmodium falciparum, this molecule registered an inhibition at 5 µM of 62%.

As for `O=C(CSc1ccc2nnc(-c3cccc(F)c3)n2n1)Nc1ccc2c(c1)OCO2`, the IC50 (in the data set on Trypanosoma cruzi; in data set [1]; in data set [2]; with Leishmania infantum; in data set [3]) was greater than 32 µM each time. In the data set with Plasmodium falciparum, this molecule returned an inhibition at 5 µM of 92%.

For the molecule `CCN(CC)CCCNc1ccnc2cc3ccccc3cc12`, the IC50 with Trypanosoma cruzi is greater than 32 µM; in data set [1], 16.2 µM; in data set [2], greater than 32 µM; in the data set with Leishmania infantum it was greater than 32 µM; in data set [3], 16.5 µM. The same molecule yielded an inhibition at 5 µM in the data set on Plasmodium falciparum of 90%.

Regarding `CC(C)(C)C(=O)Nc1ccc(C(=O)Nc2cccc(-c3nc4ccccc4[nH]3)c2)cc1`, the IC50 in the data set on Trypanosoma cruzi is 11.8 µM; in data set [1], 3.14 µM; in data set [2], 17.9 µM; in the data set on Leishmania infantum, greater than 32 µM; in data set [3], 16.4 µM. The molecule further returned an inhibition at 5 µM in the data set with Plasmodium falciparum of 91%.

Turning to `COc1ccc(-c2nonc2NC(=O)c2cccc(C)c2)cc1OC`, the IC50 (in the data set with Trypanosoma cruzi; in data set [1]; in data set [2]; in the data set with Leishmania infantum; in data set [3]) was greater than 32 µM each time. Moreover, at 5 µM the inhibition with Plasmodium falciparum was 95%.

As for `Cc1ccc(CN2CCC(C(=O)Nc3ccc(-c4cc5ccccc5[nH]4)cc3)CC2)o1`, the IC50 turned out to be 15.9 µM with Trypanosoma cruzi; 0.971 µM in data set [1]; 15.7 µM in data set [2]; 13.6 µM with Leishmania infantum; 3.33 µM in data set [3]. Also, testing at 5 µM with Plasmodium falciparum gave an inhibition of 77%.

`O=C(Nc1ccsc1C(=O)NC1CCCCC1)c1ccc(F)cc1`: the IC50 (in the data set with Trypanosoma cruzi; in data set [1]; in data set [2]; with Leishmania infantum; in data set [3]) was greater than 32 µM throughout. Besides, in the data set with Plasmodium falciparum, the inhibition at 5 µM turned out to be 86%.

Take `O=C(Nc1ccc(Cl)cc1C(=O)Nc1ccncc1)c1ccc(Cl)cc1Cl`: the IC50 (in the data set on Trypanosoma cruzi; in data set [1]; in data set [2]; in the data set with Leishmania infantum; in data set [3]) was greater than 32 µM each time. In the data set with Plasmodium falciparum, this molecule had an inhibition at 5 µM of 94%.

Take `O=C(Nc1cccc(C(F)(F)F)c1)c1cc(Cl)ccc1O`: the IC50 came out at 0.343 µM in the data set on Trypanosoma cruzi; 0.7 µM in data set [1]; 0.241 µM in data set [2]; 16.2 µM with Leishmania infantum; 0.657 µM in data set [3]. Testing at 5 µM in the data set on Plasmodium falciparum gave an inhibition of 93%.

For the molecule `CC(C)(C)c1ccc(C(=O)Nc2nc3ccccc3s2)cc1`, the IC50 (with Trypanosoma cruzi; in data set [1]; in data set [2]; in the data set with Leishmania infantum; in data set [3]) was greater than 32 µM each time. The molecule also yielded an inhibition at 5 µM in the data set on Plasmodium falciparum of 81%.

As to `COc1ccc(N2CCN(C(CNC(=O)CC(C)(C)C)c3ccc4c(c3)OCO4)CC2)cc1` (centres undefined), the IC50 in the data set with Trypanosoma cruzi was 19.7 µM; in data set [1], 27.6 µM; in data set [2], greater than 32 µM; in the data set on Leishmania infantum, greater than 32 µM; in data set [3] it was greater than 32 µM. In the data set with Plasmodium falciparum, this molecule registered an inhibition at 5 µM of 95%.

For the molecule `COc1ccc(C2N(C)c3ccccc3N2C)cc1`, the IC50 (with Trypanosoma cruzi; in data set [1]; in data set [2]; in the data set with Leishmania infantum; in data set [3]) was greater than 32 µM throughout. This molecule returned an inhibition at 5 µM with Plasmodium falciparum of 62%.

Consider `O=C(Nc1ccccc1O)c1ccc(-c2ccc(Cl)cc2Cl)o1`, for which the IC50 in the data set with Trypanosoma cruzi is greater than 32 µM; in data set [1], 13.5 µM; in data set [2], greater than 32 µM; with Leishmania infantum it was greater than 32 µM; in data set [3] it was 13.7 µM. For the same molecule, in the data set with Plasmodium falciparum, the inhibition at 5 µM came to 97%.

For `Oc1ccc(C(=C(Cl)Cl)c2ccc(O)cc2)cc1`, the IC50 (in the data set on Trypanosoma cruzi; in data set [1]; in data set [2]; in the data set with Leishmania infantum; in data set [3]) was greater than 32 µM each time. Moreover, the inhibition at 5 µM with Plasmodium falciparum stood at 95%.

Take `CCOc1ccc(-c2nc(NC(=O)c3cccc(S(C)(=O)=O)c3)sc2C)cc1`: the half-inhibitory concentration (IC50) in the data set with Trypanosoma cruzi was greater than 32 µM; in data set [1], 15.3 µM; in data set [2] it was greater than 32 µM; in the data set on Leishmania infantum it was greater than 32 µM; in data set [3] it was 14.9 µM. This molecule gave an inhibition at 5 µM with Plasmodium falciparum of 95%.

`COc1ccccc1N1CCN(C(CNS(=O)(=O)c2ccc(Cl)cc2)c2cccnc2)CC1` (centres undefined): the IC50 in the data set with Trypanosoma cruzi is 0.899 µM; in data set [1], 16.2 µM; in data set [2], greater than 32 µM; in the data set with Leishmania infantum it was greater than 32 µM; in data set [3], 16.2 µM. In the data set on Plasmodium falciparum, this molecule returned an inhibition at 5 µM of 93%.

Turning to `OC1CCCCC1C1(NC(=S)Nc2ccccc2)CCCCC1` (centres undefined), the IC50 with Trypanosoma cruzi was 12.2 µM; in data set [1], 4.12 µM; in data set [2], greater than 32 µM; in the data set with Leishmania infantum, 4.32 µM; in data set [3], 12.4 µM. Also, in the data set on Plasmodium falciparum, the inhibition at 5 µM amounted to 59%.

For the molecule `CCN(CC)CCCNc1nc(-c2ccc(Cl)cc2)nc2ccccc12`, the half-maximal inhibitory concentration (IC50) in the data set on Trypanosoma cruzi turned out to be 8.56 µM; in data set [1], 0.25 µM; in data set [2], 15.8 µM; in the data set on Leishmania infantum it was 4 µM; in data set [3] it was 0.271 µM. Moreover, the inhibition at 5 µM in the data set on Plasmodium falciparum was 92%.

As to `O=c1c2c([nH]c3ccccc13)CCCC2`, the IC50 (in the data set with Trypanosoma cruzi; in data set [1]; in data set [2]; with Leishmania infantum; in data set [3]) was greater than 32 µM in each case. In the data set on Plasmodium falciparum, this molecule showed an inhibition at 5 µM of 82%.

On to `CCOC(=O)c1cnc2ccc(OC)cc2c1NCc1ccccc1`, for which the IC50 with Trypanosoma cruzi is 13 µM; in data set [1], 4.95 µM; in data set [2] it was greater than 32 µM; in the data set with Leishmania infantum it was 10.1 µM; in data set [3], 14.9 µM. The inhibition at 5 µM in the data set on Plasmodium falciparum is 87%.

Consider `CCOC(=O)c1c[nH]c2c(CC)cccc2c1=O`, for which the IC50 (in the data set on Trypanosoma cruzi; in data set [1]; in data set [2]; in the data set with Leishmania infantum; in data set [3]) was greater than 32 µM each time. The same molecule yielded an inhibition at 5 µM with Plasmodium falciparum of 87%.

Values taken from ChEMBL document CHEMBL2028040, “Malaria Box”.
